Where a chain is given by its changes, count along the chain named. Where “and” joins values, the source holds several entries; their conditions need not be identical. Equal values may be shown once. Read-outs that look alike come from different tables or passages of the source.
Assays:
[1] = target: T1, maize endosperm AGPase variant T142F (Zea mays, UniProt P55241+Q84PF5, T142F); experiment: Apparent kinetic constants with 3-PGA, 37° C., T142F; format: biochemical
T1 construct: data of Boehlein et al., 2013
T1 sequence (P55241 46-516 T142F): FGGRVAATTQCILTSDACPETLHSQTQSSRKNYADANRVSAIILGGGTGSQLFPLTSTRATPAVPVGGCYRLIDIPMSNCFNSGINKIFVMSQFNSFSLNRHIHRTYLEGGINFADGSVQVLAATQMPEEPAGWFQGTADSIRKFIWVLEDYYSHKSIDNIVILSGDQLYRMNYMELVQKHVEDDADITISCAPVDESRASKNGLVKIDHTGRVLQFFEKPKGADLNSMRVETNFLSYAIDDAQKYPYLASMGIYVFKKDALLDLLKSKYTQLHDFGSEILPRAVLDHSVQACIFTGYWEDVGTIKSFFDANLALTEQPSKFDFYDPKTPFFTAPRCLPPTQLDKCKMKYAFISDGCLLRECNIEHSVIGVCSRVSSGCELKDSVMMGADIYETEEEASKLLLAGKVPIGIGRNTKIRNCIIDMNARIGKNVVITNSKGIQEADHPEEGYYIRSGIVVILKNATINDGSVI
T1 sequence (Q84PF5 1-474): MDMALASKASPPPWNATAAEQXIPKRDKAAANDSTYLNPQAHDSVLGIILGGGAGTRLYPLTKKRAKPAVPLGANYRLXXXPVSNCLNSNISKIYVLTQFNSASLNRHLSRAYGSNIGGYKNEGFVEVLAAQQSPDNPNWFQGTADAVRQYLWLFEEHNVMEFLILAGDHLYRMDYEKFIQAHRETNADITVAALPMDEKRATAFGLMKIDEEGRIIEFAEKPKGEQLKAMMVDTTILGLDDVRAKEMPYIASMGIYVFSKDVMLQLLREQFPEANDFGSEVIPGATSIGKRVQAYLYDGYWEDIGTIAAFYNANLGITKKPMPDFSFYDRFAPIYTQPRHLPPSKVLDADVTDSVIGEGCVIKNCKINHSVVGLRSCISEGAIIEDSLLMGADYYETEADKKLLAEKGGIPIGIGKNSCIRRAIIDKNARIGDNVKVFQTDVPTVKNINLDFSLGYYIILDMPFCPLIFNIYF
Description: (§1) An endpoint assay was used to determine the rate of the AGPase reaction by coupling the formation of PPi to a decrease in NADH concentration (Boehlein et al., 2008). […] The Michaelis constants (Km) were obtained by varying one substrate in the presence of saturating concentrations of the second substrate. The activation constants were obtained by varying the activator at fixed levels of both substrates. All reactions were performed at 37° C. and mixes were prewarmed before starting the reaction with enzyme. […] The absorbance at 340 nm was monitored after 30 min and the amount of PPi produced was determined from a standard curve using PPi in complete reaction mixtures lacking AGPase. Blank samples contained complete reaction mixtures without enzyme and the change in absorbance between the blank and the reaction was used to calculate the amount of PPi produced. […]
(§2) The apparent Michaelis constant and maximum velocity of each reaction was calculated from a V vs. S plots using nonlinear regression analysis and the following equation, v=VmaxS/(Km+S), where v is the measured velocity, Vmax is the maximum velocity, S is the substrate concentration. […]
(§3) Each mutant, comprising 1, 2, 3 or 4 changes, was grown in a large scale culture, expressed and purified according to standard procedures (Boehlein et al., 2005). […] Next, the activation constant, Ka, was determined for each of the mutant enzymes. […]

[2] = tested on: maize endosperm AGPase, heat stable ISM mutants; experiment: Apparent kinetic constants with 3-PGA, 37° C., ISM mutants collectively; format: biochemical, Zea mays
Description: An endpoint assay was used to determine the rate of the AGPase reaction by coupling the formation of PPi to a decrease in NADH concentration (Boehlein et al., 2008). […] The Michaelis constants (Km) were obtained by varying one substrate in the presence of saturating concentrations of the second substrate. The activation constants were obtained by varying the activator at fixed levels of both substrates. All reactions were performed at 37° C. and mixes were prewarmed before starting the reaction with enzyme. Reactions were terminated by boiling the reaction mixes for 2 minutes followed by development with 200 μl of coupling reagent (25 mM imidazole pH 7.4, 4 mM MgCl2, 1 mM EDTA, 0.2 mM NADH, 0.725 U aldolase, 0.4 U triose phosphate isomerase, 0.6 U glycerophosphate dehydrogenase, 1 mM fructose 6-phosphate and 0.8 μg purified PPi-PFK per reaction). The absorbance at 340 nm was monitored after 30 min and the amount of PPi produced was determined from a standard curve using PPi in complete reaction mixtures lacking AGPase. Blank samples contained complete reaction mixtures without enzyme and the change in absorbance between the blank and the reaction was used to calculate the amount of PPi produced. Reactions were linear with time and enzyme concentration.
The apparent Michaelis constant and maximum velocity of each reaction was calculated from a V vs. S plots using nonlinear regression analysis and the following equation, v=VmaxS/(Km+S), where v is the measured velocity, Vmax is the maximum velocity, S is the substrate concentration. The activation constant (Ka) was obtained using the following equation: V=Vmin+Vmax*(X)/(Ka+X), where Vmin is the velocity in the absence of activator and Vmax is the change in activity from Vmin to the total velocity. X is the activator concentration, Ka is the activation constant. All linear regression was carried out using the software program Prism (Graph Pad, San Diego Calif.).
Each mutant, comprising 1, 2, 3 or 4 changes, was grown in a large scale culture, expressed and purified according to standard procedures (Boehlein et al., 2005). […] Thus, the effects of these mutations on the kinetic constants are minimal. Next, the activation constant, Ka, was determined for each of the mutant enzymes. Here a decrease in the Ka for each of the mutants of approximately 3-6 fold was observed. This property appears to stem from the D161G change, and includes all enzymes which carry this mutation (Table 8). To be certain the effect is the result of the D161G mutation, and not the result of other single mutant changes, Q96R and Q96G were purified and characterized.

[3] = target: T1, maize endosperm AGPase variant T142F; conditions: read-out: G-1-P Km, absence of 3-PGA; cited from earlier work
[4] = tested on: maize endosperm AGPase, evolutionary mutant SH2-E (SH2E); conditions: cited from earlier work; for Ki: presence of 3-PGA, NC, read-out: Ki (Pi)
[5] = tested on: maize endosperm AGPase, wild type; conditions: cited from earlier work
[6] = tested on: maize endosperm AGPase, evolutionary mutant SH2-E (SH2E); conditions: cited from earlier work; for Ki: read-out: Ki (Pi)
[7] = target: T2, maize endosperm AGPase, evolutionary mutant SH2-E (Zea mays, UniProt P55241+Q84PF5); conditions: read-out: G-1-P Km, absence of 3-PGA; cited from earlier work
T2 construct: data of Boehlein et al., 2013
T2 sequence (P55241 46-516, change not shown, one chain of several): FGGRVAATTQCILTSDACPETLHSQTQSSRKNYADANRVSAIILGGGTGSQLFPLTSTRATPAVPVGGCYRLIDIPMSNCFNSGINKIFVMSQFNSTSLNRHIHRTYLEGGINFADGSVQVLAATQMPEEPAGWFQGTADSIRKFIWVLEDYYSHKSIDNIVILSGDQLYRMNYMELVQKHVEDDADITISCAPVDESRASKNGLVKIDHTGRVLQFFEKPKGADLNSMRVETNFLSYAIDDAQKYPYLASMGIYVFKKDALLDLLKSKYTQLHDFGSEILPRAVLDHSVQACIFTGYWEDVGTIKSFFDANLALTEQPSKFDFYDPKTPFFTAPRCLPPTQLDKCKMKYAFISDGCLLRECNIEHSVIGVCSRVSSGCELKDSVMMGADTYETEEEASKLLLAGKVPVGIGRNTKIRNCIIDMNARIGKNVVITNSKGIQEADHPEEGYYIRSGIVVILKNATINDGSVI

[8] = tested on: maize endosperm AGPase, wild type; conditions: cited from earlier work; remark: listed apart in the source
[9] = target: T2, maize endosperm AGPase, evolutionary mutant SH2-E; experiment: Apparent kinetic constants with 3-PGA, 37° C., SH2-E; format: biochemical; conditions: read-out: G-1-P Km
Description: as §1, §2, §3

[10] = tested on: maize endosperm AGPase, wild type (Maize-wt); conditions: read-out: G-1-P Km, absence of 3-PGA; cited from earlier work
[11] = target: T3, maize endosperm AGPase, large subunit variant GGR (Q96G, D161G, A443R; numbering of SEQ ID NO: 20) (Zea mays, UniProt P55241+Q84PF5, A443R/D161G/Q96G); experiment: Pi inhibition in the presence of 3-PGA, GGR; format: biochemical
T3 sequence (P55241 46-516 A443R/D161G/Q96G): T1 sequence (P55241 46-516 T142F) with Q51G, F97T, D116G, A398R
T3 sequence (Q84PF5 1-474): T1 sequence (Q84PF5 1-474)
Description: Inhibition by Pi was then followed in the presence of the activator 3-PGA.

[12] = target: T3, maize endosperm AGPase, large subunit variant GGR (Q96G, D161G, A443R; numbering of SEQ ID NO: 20); experiment: Pi inhibition in the absence of 3-PGA, GGR; format: biochemical
Description: Next, the kinetics of the GGR mutant were further investigated by following Pi inhibition in the presence and absence of 3-PGA. Experiments were performed by keeping both substrates constant and non-saturating at several fixed concentrations of Pi.
A similar examination of the Pi inhibition was then followed with GGR in the absence of 3-PGA.

[13] = Maize wt, presence of 3-PGA, varied substrate ATP
[14] = Maize wt, presence of 3-PGA, varied substrate G-1-P
[15] = absence of 3-PGA, varied substrate G-1-P
[16] = Maize wt, absence of 3-PGA, varied substrate ATP
[17] = Maize wt, absence of 3-PGA, varied substrate G-1-P

Compound: O=C(O)[C@H](O)COP(=O)(O)O [3-PGA]
- Ka for 3-PGA [1]: decreased Ka
- affinity for the activator, 3-PGA ([2]; heat stable mutant): increased affinity
- decrease in the Ka for 3-PGA ([2]; mutants carrying D161G versus wt maize): 3-6 fold

Compound: O=P(O)(O)O[C@H]1O[C@H](CO)[C@@H](O)[C@H](O)[C@H]1O [G-1-P, glucose-1-phosphate]
- Km [3]: 90 µM
- Km ([4]; read-out: Km (G-1-P), presence of 3-PGA, G-1-P varied, Pi inhibition, NC): 63 µM
- Km ([5]; read-out: Km (G-1-P), Maize wt, presence of 3-PGA, G-1-P varied, Pi inhibition, P-MT): 91 µM
- Km ([6]; read-out: Km (G-1-P), absence of 3-PGA, G-1-P varied, Pi inhibition): 200 µM
- Km [7]: 30 µM
- Km ([8]; read-out: Km (G-1-P), Maize wt, absence of 3-PGA, G-1-P varied, Pi inhibition, P-MT): 22.2 mM
- Km ([8]; wt maize AGPase, absence of activator, Pi inhibition assay, read-out: Km for both substrates): > 20 mM
- Km [9]: 30 µM
- Km [10]: 2.8 mM
- largest variation in Km ([2]; mutants versus wt maize, in the presence of 3-PGA): approximately two-fold

Compound: O=P(O)(O)O [Pi, phosphate]
- Ki ([4]; varied substrate ATP): 7.8 mM
- Ki ([4]; varied substrate G-1-P): 6.62 mM
- Ki ([5]; Maize wt, presence of 3-PGA, varied substrate ATP, P-MT, read-out: Ki (Pi)): 370 µM
- α (Pi interaction factor) [5, 13]: 4.61 +/− 0.70
- β (partiality of Pi inhibition) [5, 13]: 0.83 +/− 0.037
- Ki ([5]; Maize wt, presence of 3-PGA, varied substrate G-1-P, P-MT, read-out: Ki (Pi)): 1000 µM
- α (Pi interaction factor) [5, 14]: 0.90 +/− 0.012
- β (partiality of Pi inhibition) [5, 14]: 0.52 +/− 0.023
- Ki ([5]; wt AGPase, in the presence of 3-PGA, read-out: Ki for Pi): 500 to 1000 µM
- Ki ([11]; in the presence of 3-PGA, read-out: Ki for Pi): 10 to 20 mM
- α (Pi interaction factor) ([11]; presence of 3-PGA, varied substrate ATP): 2.5 and 2.5 +/− 0.66
- Ki ([11]; presence of 3-PGA, varied substrate ATP, L-MT, read-out: Ki (Pi)): 10.7 mM
- Ki ([11]; presence of 3-PGA, varied substrate G-1-P, NC, read-out: Ki (Pi)): 20.7 mM
- Ki ([6]; absence of 3-PGA, varied substrate ATP, NC): 20.9 mM
- Ki [6, 15]: 0.055 mM
- α (Pi interaction factor) [6, 15]: 0.85 +/− 0.17
- β (partiality of Pi inhibition) [6, 15]: 0.44 +/− 0.03
- Ki ([8]; Maize wt, absence of 3-PGA, varied substrate ATP, P-MT, read-out: Ki (Pi)): 3.4 mM
- α (Pi interaction factor) [8, 16]: 0.063 +/− 0.034
- β (partiality of Pi inhibition) [8, 16]: 0.52 +/− 0.17
- Ki ([8]; Maize wt, absence of 3-PGA, varied substrate G-1-P, P-MT, read-out: Ki (Pi)): 5.1 mM
- α (Pi interaction factor) [8, 17]: 0.095 +/− 0.065
- β (partiality of Pi inhibition) [8, 17]: 0.92 +/− 0.31
- Ki ([8]; wt maize AGPase, absence of activator, read-out: Ki for Pi): 3 to 5 mM
- Ki for Pi relative to normal concentration of Pi in maize endosperm (~6.5 mM) [12]: 10-20 times
- Ki ([12]; read-out: Ki for Pi with respect to both substrates): 50 to 100 mM
- Ki ([12]; varied substrate G-1-P, read-out: Ki (Pi)): 52.7 mM
